Measurements: patent publication US20060194837A1, “Tetrahydroisoquinoline compounds” (priority 2004, published 2006)
Where two headings read alike, the source gives them in different places.

What was measured:
[1] = biological target: T1, human SERT (Homo sapiens, UniProt P31645); test: Human SERT binding (3H-citalopram displacement); details: HEK293 membranes expressing human SERT, rt 1 h
T1 construct: expressed in transfected cells; host or cells: HEK293 membranes
Procedure: Homogenized HEK293 (Human Embryonic Kidney) membranes expressing the human SERT were incubated with ^3H-citalopram (SERT) at rt for 1 h in 50 mM Tris, 120 mM NaCl, 5 mM KCl (pH 7.4). […] The membranes were washed and the radioactivity was counted as above.

[2] = biological target: T2, human H3 receptor (Homo sapiens, UniProt Q9Y5N1); test: Cyclic AMP accumulation (β-galactosidase reporter, Schild analysis); type: cell-based; details: histamine agonist, forskolin 5 μM, Schild regression of pEC50 values
T2 construct: expressed in transfected cells
T2 sequence (Q9Y5N1 whole entry): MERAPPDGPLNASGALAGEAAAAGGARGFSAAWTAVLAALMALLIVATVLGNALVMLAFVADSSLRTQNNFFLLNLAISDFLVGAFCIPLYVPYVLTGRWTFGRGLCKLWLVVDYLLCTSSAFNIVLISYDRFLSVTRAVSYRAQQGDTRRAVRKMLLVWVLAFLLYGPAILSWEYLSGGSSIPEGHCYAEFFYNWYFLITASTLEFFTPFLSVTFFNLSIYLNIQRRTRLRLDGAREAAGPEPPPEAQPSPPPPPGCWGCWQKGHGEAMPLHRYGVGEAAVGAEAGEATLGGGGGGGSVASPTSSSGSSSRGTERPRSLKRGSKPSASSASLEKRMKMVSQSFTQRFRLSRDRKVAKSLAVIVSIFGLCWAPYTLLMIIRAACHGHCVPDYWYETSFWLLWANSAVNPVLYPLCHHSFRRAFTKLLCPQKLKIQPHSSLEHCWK
Procedure: Sublines of SK-N-MC cells were created that expressed a reporter construct and the human H3 receptor. The reporter gene (β-galactosidase) is under the control of multiple cyclic AMP responsive elements. In 96-well plates, histamine was added directly to the cell media followed 5 min later by an addition of forskolin (5 μM final concentration). When appropriate, antagonists were added 10 min prior to agonist addition. After a 6-h incubation at 37° C., the media was aspirated and the cells washed with 200 μL of phosphate-buffered saline followed by a second aspiration. Cells were lysed with 25 μL 0.1× assay buffer (10 mM Na-phosphate, pH 8, 0.2 mM MgSO4, 0.01 mM MnCl2) and incubated at rt for 10 min. […] Color was developed using 25 μL of 1 mg/mL substrate solution (chlorophenolred β-D galactopyranoside; Roche Molecular Biochemicals, Indianapolis, In.).

[3] = biological target: T2, human H3 receptor; test: H3 receptor binding (N-[3H]-α-methylhistamine displacement); details: membranes of SK-N-MC cells expressing cloned human H3 receptor, 0.8 nM N-[3H]-α-methylhistamine, 60 min at 25° C.
[4] = biological target: T3, Rat SERT (Rattus norvegicus, UniProt P31652); test: Rat brain SERT binding ([3H]-citalopram displacement); details: rat brain membranes without cerebellum, 0.6 nM [3H]-citalopram, 60 min at 25° C.
T3 construct: A rat brain without cerebellum (Zivic Laboratories, Inc.—Pittsburgh, Pa.) was homogenized; tissue Zivic Laboratories, Inc; host or cells: rat brain without cerebellum, membranes
T3 sequence (P31652 whole entry): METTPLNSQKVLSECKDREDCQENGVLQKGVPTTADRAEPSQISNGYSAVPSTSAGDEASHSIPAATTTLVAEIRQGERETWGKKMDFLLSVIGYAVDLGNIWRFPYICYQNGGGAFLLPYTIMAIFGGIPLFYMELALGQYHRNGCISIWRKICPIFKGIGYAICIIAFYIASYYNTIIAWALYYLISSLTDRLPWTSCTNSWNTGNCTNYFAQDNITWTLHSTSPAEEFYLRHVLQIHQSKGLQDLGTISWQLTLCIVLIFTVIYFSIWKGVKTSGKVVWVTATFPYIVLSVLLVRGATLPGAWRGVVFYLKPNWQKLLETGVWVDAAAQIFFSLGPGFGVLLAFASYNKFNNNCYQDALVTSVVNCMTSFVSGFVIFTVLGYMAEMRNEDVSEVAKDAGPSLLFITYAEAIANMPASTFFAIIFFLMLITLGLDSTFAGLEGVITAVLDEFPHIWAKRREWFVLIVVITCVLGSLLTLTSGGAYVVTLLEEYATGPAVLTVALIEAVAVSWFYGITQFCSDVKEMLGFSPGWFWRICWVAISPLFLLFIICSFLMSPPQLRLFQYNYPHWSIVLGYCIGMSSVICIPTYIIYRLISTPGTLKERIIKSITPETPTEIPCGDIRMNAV
Procedure: The supernatant was removed and re-centrifuged at 15,000 rpm for 30 min. […] Membranes were incubated with 0.6 nM [^3H]-Citalopram plus/minus test compounds for 60 min at 25° C. and harvested by rapid filtration over GF/C glass fiber filters (pretreated with 0.3% polyethylenimine) followed by four washes with ice-cold buffer.

[5] = SK-N-MC cells expressing human H3 receptor and CRE-β-galactosidase reporter, read-out: pA2 (converted)
[6] = pA2, SK-N-MC cells expressing human H3 receptor and CRE-β-galactosidase reporter

T1 sequence (P31645 whole entry): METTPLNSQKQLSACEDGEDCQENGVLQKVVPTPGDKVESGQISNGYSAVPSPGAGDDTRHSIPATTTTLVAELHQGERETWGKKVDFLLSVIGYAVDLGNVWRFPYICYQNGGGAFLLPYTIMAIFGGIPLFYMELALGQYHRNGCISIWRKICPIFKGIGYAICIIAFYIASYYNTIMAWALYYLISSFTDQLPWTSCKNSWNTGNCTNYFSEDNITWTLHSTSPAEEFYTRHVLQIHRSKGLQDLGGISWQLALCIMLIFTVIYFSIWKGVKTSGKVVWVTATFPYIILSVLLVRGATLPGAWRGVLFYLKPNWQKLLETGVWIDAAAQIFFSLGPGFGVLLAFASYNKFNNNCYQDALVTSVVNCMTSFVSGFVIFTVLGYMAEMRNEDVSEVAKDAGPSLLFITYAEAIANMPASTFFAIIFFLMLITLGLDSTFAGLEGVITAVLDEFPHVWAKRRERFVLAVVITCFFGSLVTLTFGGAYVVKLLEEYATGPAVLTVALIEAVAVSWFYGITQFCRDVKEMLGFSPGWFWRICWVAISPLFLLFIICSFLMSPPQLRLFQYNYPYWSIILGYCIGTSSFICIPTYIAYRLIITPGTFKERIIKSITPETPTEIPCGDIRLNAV

SMILES | Ki [1] | Kb [2, 5] | Ki [3] | Ki ([4]; read-out: Rat SERT Ki) | Kb [2, 6] | Ki ([4]; Rat SERT Ki (nM))
COc1ccc(C2CN(C)Cc3cc(OCCCN4CCOCC4)ccc32)cc1 (stereo not drawn) [Example 9, 4-(4-Methoxy-phenyl)-2-methyl-7-(3-morpholin-4-yl-propoxy)-1,2,3,4-tetrahydro-isoquinoline] | 6 nM | 2.51 nM | 3 nM | 5 nM |  | 
CN1Cc2cc(OCCCN3CCCCC3)ccc2C(c2ccc(C(F)(F)F)cc2)C1 (stereo not drawn) [Example 60] | 7 nM | 2.51 nM | 2 nM | 14 nM |  | 
CCN(CC)CCCOc1ccc2c(c1)CN(C)CC2c1ccc(OC)cc1 (stereo not drawn) [Example 3, Diethyl-{3-[4-(4-methoxy-phenyl)-2-methyl-1,2,3,4-tetrahydro-isoquinolin-7-yloxy]-propyl}-amine] | 4 nM |  | 0.7 nM | 3 nM | 0.398 nM | 
CN1Cc2cc(OCCCN3CCC(F)CC3)ccc2C(c2ccc(OC(F)F)cc2)C1 (stereo not drawn) [Example 50, 4-(4-Difluoromethoxy-phenyl)-7-[3-(4-fluoro-piperidin-1-yl)-propoxy]-2-methyl-1,2,3,4-tetrahydro-isoquinoline] | 3 nM |  | 8 nM | 3 nM | 3.98 nM | 
c1cncc(C2CNCc3cc(CCCCN4CCCCC4)ccc32)c1 (stereo not drawn) [Example 272, 7-(4-Piperidin-1-yl-butyl)-4-pyridin-3-yl-1,2,3,4-tetrahydro-isoquinoline] | 3000 nM | 3.16 nM | 3 nM | 540 nM |  | 
CSc1ccc(C2CN(C)Cc3cc(OCC4CN(C(C)C)CCO4)ccc32)cc1 (mixture of isomers) [Example 262, 7-(4-Isopropyl-morpholin-2-ylmethoxy)-2-methyl-4-(4-methylsulfanyl-phenyl)-1,2,3,4-tetrahydro-isoquinoline] |  | 6.31 nM | 10 nM | 5 nM |  | 
C(#Cc1ccc2c(c1)CNCC2c1cccnc1)CCN1CCCCC1 (stereo not drawn) [Example 271, 7-(4-Piperidin-1-yl-but-1-ynyl)-4-pyridin-3-yl-1,2,3,4-tetrahydro-isoquinoline] | 3000 nM | 0.251 nM | 0.7 nM | 413 nM |  | 
COc1cccc(C2CN(C)Cc3cc(OCCCN4CCC(F)CC4)ccc32)c1 (single isomer, unassigned) [Example 45A, 7-[3-(4-Fluoro-piperidin-1-yl)-propoxy]-4-(3-methoxyphenyl)-2-methyl-1,2,3,4-tetrahydro-isoquinoline] | 7 nM | 1.26 nM | 2 nM | 9 nM |  | 
COc1ccc(C2CN(C)Cc3cc(OCCCN4CCC(C#N)CC4)ccc32)cc1 (racemic) [Example 37, 1-{3-[4-(4-Methoxy-phenyl)-2-methyl-1,2,3,4-tetrahydro-isoquinolin-7-yloxy]-propyl}-piperidine-4-carbonitrile] | 6 nM | 6.31 nM | 9 nM | 8 nM |  | 
CSc1ccc(C2CN(C)Cc3cc(OCC4CN(C5CC5)C4)ccc32)cc1 (stereo not drawn) [Example 237, 7-(1-Cyclopropyl-azetidin-3-ylmethoxy)-2-methyl-4-(4-methylsulfanyl-phenyl)-1,2,3,4-tetrahydro-isoquinoline] |  | 15.8 nM | 5 nM | 3 nM |  | 
CN1Cc2cc(OCCCN3CCC(F)CC3)ccc2C(c2cc(Cl)ccc2Cl)C1 (stereo not drawn) [Example 55, 4-(2,5-Dichloro-phenyl)-7-[3-(4-fluoro-piperidin-1-yl)-propoxy]-2-methyl-1,2,3,4-tetrahydro-isoquinoline] |  |  | 8 nM |  | 5.01 nM | 209 nM
COc1ccc(C2CN(C)Cc3cc(OC[C@@H]4CN(C5CC5)CCO4)ccc32)cc1 (single isomer, unassigned) [Example 260A, 7-(4-Cyclopropyl-morpholin-2S-ylmethoxy)-4-(4-methoxy-phenyl)-2-methyl-1,2,3,4-tetrahydro-isoquinoline] |  | 1 nM | 2 nM | 17 nM |  | 
COc1ccc(C2CNCc3cc(OCCCN4CCC(F)CC4)ccc32)cc1 (stereo not drawn) [Example 147, 7-[3-(4-Fluoro-piperidin-1-yl)-propoxy]-4-(4-methoxy-phenyl)-1,2,3,4-tetrahydro-isoquinoline] |  | 10 nM | 9 nM | 18 nM |  | 

Continued, in another order:

Ki [1] | Kb [2, 5] | Ki [3] | Ki ([4]; read-out: Rat SERT Ki) | SMILES | Kb [2, 6] | Ki ([4]; Rat SERT Ki (nM))
31 nM | 0.251 nM | 1 nM | 16 nM | COc1ccc(C2CN(CCO)Cc3cc(OCCCN4CCCCC4)ccc32)cc1 (stereo not drawn) [Example 71, 2-[4-(4-Methoxy-phenyl)-7-(3-piperidin-1-yl-propoxy)-3,4-dihydro-1H-isoquinolin-2-yl]-ethanol] |  | 
 | 0.794 nM | 1 nM | 9 nM | COc1ccc(C2CNCc3cc(OCCCN4CCCCC4)ccc32)cc1 (stereo not drawn) [Example 69, 4-(4-Methoxy-phenyl)-7-(3-piperidin-1-yl-propoxy)-1,2,3,4-tetrahydro-isoquinoline] |  | 
 | 5.01 nM | 7 nM | 12 nM | COc1ccc(C2CN(C)Cc3cc(OC[C@H]4CN(C(C)C)CCO4)ccc32)cc1 (single isomer, unassigned) [Example 256A, 7-(4-Isopropyl-morpholin-2R-ylmethoxy)-4-(4-methoxy-phenyl)-2-methyl-1,2,3,4-tetrahydro-isoquinoline] |  | 
12 nM | 2 nM | 3 nM | 12 nM | CCN1Cc2cc(OCCCN3CCC(F)CC3)ccc2C(c2ccc(OC)cc2)C1 (stereo not drawn) [Example 146, 2-Ethyl-7-[3-(4-fluoro-piperidin-1-yl)-propoxy]-4-(4-methoxy-phenyl)-1,2,3,4-tetrahydro-isoquinoline] |  | 
 | 12.6 nM | 5 nM | 4 nM | CSc1ccc(C2CN(C)Cc3cc(OCC4CN(C5CCC5)C4)ccc32)cc1 (stereo not drawn) [Example 238, 7-(1-Cyclobutyl-azetidin-3-ylmethoxy)-2-methyl-4-(4-methylsulfanyl-phenyl)-1,2,3,4-tetrahydro-isoquinoline] |  | 
7 nM | 0.794 nM | 2 nM | 4 nM | COc1cccc(C2CN(C)Cc3cc(OCCCN4CCC(F)CC4)ccc32)c1 (racemic) [Example 44, 7-[3-(4-Fluoro-piperidin-1-yl)-propoxy]-4-(3-methoxyphenyl)-2-methyl-1,2,3,4-tetrahydro-isoquinoline] |  | 
98 nM | 3.16 nM | 6 nM | 90 nM | CN1Cc2cc(C#CCCN3CCCCC3)ccc2C(c2ccc(F)cc2)C1 (stereo not drawn) [Example 279, 4-(4-Fluoro-phenyl)-2-methyl-7-(4-piperidin-1-yl-but-1-ynyl)-1,2,3,4-tetrahydro-isoquinoline] |  | 
 | 1.58 nM | 2 nM | 13 nM | COc1ccc(C2CN(C)Cc3cc(OCCCN4CCCCC4)c(C)cc32)cc1 (stereo not drawn) [Example 265, 4-(4-Methoxy-phenyl)-2,6-dimethyl-7-(3-piperidin-1-yl-propoxy)-1,2,3,4-tetrahydro-isoquinoline] |  | 
 | 1 nM | 2 nM | 83 nM | COc1ccc(C2CN(C3CC3)Cc3cc(OCCCN4CCCCC4)ccc32)cc1 (stereo not drawn) [Example 73, 2-Cyclopropyl-4-(4-methoxy-phenyl)-7-(3-piperidin-1-yl-propoxy)-1,2,3,4-tetrahydro-isoquinoline] |  | 
 | 10 nM | 11 nM | 6 nM | CN1Cc2cc(OCCCN3CCC(F)CC3)ccc2C(c2ccc(Br)cc2)C1 (stereo not drawn) [Example 213, 4-(4-Bromo-phenyl)-7-[3-(4-fluoro-piperidin-1-yl)-propoxy]-2-methyl-1,2,3,4-tetrahydro-isoquinoline] |  | 
